Experiment: Physicochemical parameters of Luc-mRNA-LNP (particle size, PDI, zeta potential, encapsulation efficiency)
Settings: lipid formulation of Table 1
Description: The lipid compound of the present disclosure, neutral lipid (phospholipid), and PEG lipid were dissolved in an ethanol solution according to a specific molar ratio (detailed formulation shown in Table 1). The mRNA was dissolved in a citric acid buffer (pH 4.0) to a final concentration of 135 ng/µL. The LNP mixture and the mRNA dilution were mixed at a volume ratio of 1:3, and mRNA-LNP complexes were prepared using a microfluidic nano-preparation system with a flow rate ratio of 1:3 between the LNP mixture and the mRNA dilution, that is, the LNP volume:the mRNA volume was 1:3. After dilution with a 10× phosphate buffer solution (pH 7.4), ultrafiltration concentration was performed, followed by about 500-fold dilution with solution replacement. An experimental sample was obtained after sterile filtration. Samples were taken and analyzed for average particle size, PDI, and Zeta potential. Table 1: Three-component LNP lipid formulation based on cholesterol cationic lipid compound
Example 13: Preparation, Characterization, and In Vitro Cell Transfection Activity Evaluation of Luc-mRNA-LNP Using luciferase gene Luc-mRNA and referring to the preparation method provided in Example 12 and the lipid formulation provided in Table 1, Luc-mRNA-LNP was constructed, whose encapsulation efficiency, average particle size, PDI, and zeta potential data are shown in Table 2. […]

- Encapsulation efficiency (%): below 15%
Compound: CCCCCCCCCCCOC(=O)CCCCCN(CCO)CCCCCCCC(=O)OC(CCCCCCCC)CCCCCCCC [SM-102]

Reference: patent EP4628497A1, “STEROID-CATIONIC LIPID COMPOUND AND USE THEREOF” (Jenkem Technology Co., Ltd. (Liaoning), priority 2023, dated 2024)
